Source: patent publication US20080009418A1, “Selective Inhibitors” (Alchemia LTD., priority 2004, published 2008)

Key:
Details in all cases: compound at 10 μM
Human Melanocortin (MC3) = biological target: T1, Human Melanocortin (MC3) (Homo sapiens, UniProt P41968); assay: Radioligand binding, human melanocortin MC3 membranes, FlashPlate, [125I]-NDP-αMSH
T1 construct: purchased Perkin Elmer Biosignal
Outline: (§1)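 Cloned human receptor membranes were coated onto FlashPlate wells and incubated with radioligand and compound (added from a 0.5 mM DMSO daughter plate) for 1 hour at room temperature in the dark. Scintillation counting gave percent inhibition, with DMSO defining total and reference ligand defining non-specific binding.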

Human κ-Opioid (KOP) = biological target: T2, Human κ-Opioid (KOP) (Homo sapiens, UniProt P41145); assay: Radioligand binding, human κ-opioid (KOP) membranes, filtration, [3H]-Diprenorphine
T2 construct: purchased Perkin Elmer Biosignal
Outline: (§2)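 Percent inhibition of radioligand binding measured on recombinant human membranes: NK1 with [125I]-Substance P, KOP with [3H]-Diprenorphine. Incubation 1 h at room temperature, then harvest onto 0.3% PEI-soaked filters, cold Tris-HCl pH 7.4 washes and scintillation counting; non-specific binding from reference ligand wells.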

Human opioid (ORL1) = biological target: T3, Human opioid (ORL1) (Homo sapiens, UniProt P41146); assay: Radioligand binding, human opioid ORL1 membranes, FlashPlate, [125I]-Nociceptin
T3 construct: purchased Perkin Elmer Biosignal
Outline: as §1

Human Melanocortin (MC4) = biological target: T4, Human Melanocortin (MC4) (Homo sapiens, UniProt P32245); assay: Radioligand binding, human melanocortin MC4 membranes, FlashPlate, [125I]-NDP-αMSH
T4 construct: purchased Perkin Elmer Biosignal
Outline: as §1

Human μ-opioid (MOP) = biological target: T5, Human μ-opioid (MOP) (Homo sapiens, UniProt P35372); assay: Radioligand binding, human μ-opioid (MOP) membranes, FlashPlate, [3H]-Naloxone
T5 construct: purchased Perkin Elmer Biosignal
Outline: as §1

[1] = biological target: T6, Human melanin-concentrating hormone (MCH1) (Homo sapiens, UniProt Q99705); assay: Radioligand binding, human melanin-concentrating hormone MCH1 membranes, FlashPlate, [125I]-S36057
T6 construct: purchased Perkin Elmer Biosignal
Outline: as §1

Human melanocortin (MC5) = biological target: T7, Human melanocortin (MC5) (Homo sapiens, UniProt P33032); assay: Radioligand binding, human melanocortin MC5 membranes, FlashPlate, [125I]-NDP-αMSH
T7 construct: purchased Perkin Elmer Biosignal
Outline: as §1

Mouse urotensin (mUR2) = biological target: T8, Mouse urotensin (mUR2) (Mus musculus, UniProt Q8VIH9); assay: Radioligand binding, mouse urotensin mUR2 membranes, FlashPlate, [125I]-Urotensin II
T8 construct: purchased Perkin Elmer Biosignal
T8 sequence (Q8VIH9 1-385): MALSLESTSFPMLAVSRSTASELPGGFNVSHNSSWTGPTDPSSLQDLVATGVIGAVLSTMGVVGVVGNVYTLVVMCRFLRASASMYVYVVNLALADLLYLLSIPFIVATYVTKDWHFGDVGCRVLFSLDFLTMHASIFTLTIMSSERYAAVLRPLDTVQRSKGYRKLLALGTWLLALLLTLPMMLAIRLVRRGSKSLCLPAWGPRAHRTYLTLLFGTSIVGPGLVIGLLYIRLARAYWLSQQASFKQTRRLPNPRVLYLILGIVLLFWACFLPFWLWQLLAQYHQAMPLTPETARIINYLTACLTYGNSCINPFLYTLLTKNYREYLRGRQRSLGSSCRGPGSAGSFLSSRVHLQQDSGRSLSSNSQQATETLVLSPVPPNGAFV
Outline: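 Cloned mouse urotensin (mUR2) receptor membranes from Perkin Elmer Biosignal were immobilized in FlashPlate microplates using a proprietary coating. Each well got 19.5 μl buffer, then 0.5 μl of DMSO, reference ligand, or compound. Adding 5 μl of [125I]-Urotensin II, diluted to 5× final concentration in binding buffer, started binding. Plates were sealed with TopSeal-A and incubated 1 hour at room temperature in the dark. Wells were counted for 30 seconds each on a TopCount after a 60-second delay, and percentage inhibition was calculated.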

Human δ-opioid (DOP) = biological target: T9, Human δ-opioid (DOP) (Homo sapiens, UniProt P41143); assay: Radioligand binding, human δ-opioid (DOP) membranes, FlashPlate, [3H]-Bremazocine
T9 construct: purchased Perkin Elmer Biosignal
Outline: as §1

Human neurokinin (NK1) = biological target: T10, Human neurokinin (NK1) (Homo sapiens, UniProt P25103); assay: Radioligand binding, human neurokinin NK1 membranes, filtration, [125I]-Substance P
T10 construct: purchased Perkin Elmer Biosignal
Outline: as §2

[2] = biological target: T11, Human neuropeptide Y (NPY-Y1) (Homo sapiens, UniProt P25929); assay: Radioligand binding, human neuropeptide Y NPY-Y1 membranes, FlashPlate, [125I]-PYY
T11 construct: purchased Perkin Elmer Biosignal
T11 sequence (P25929 1-384): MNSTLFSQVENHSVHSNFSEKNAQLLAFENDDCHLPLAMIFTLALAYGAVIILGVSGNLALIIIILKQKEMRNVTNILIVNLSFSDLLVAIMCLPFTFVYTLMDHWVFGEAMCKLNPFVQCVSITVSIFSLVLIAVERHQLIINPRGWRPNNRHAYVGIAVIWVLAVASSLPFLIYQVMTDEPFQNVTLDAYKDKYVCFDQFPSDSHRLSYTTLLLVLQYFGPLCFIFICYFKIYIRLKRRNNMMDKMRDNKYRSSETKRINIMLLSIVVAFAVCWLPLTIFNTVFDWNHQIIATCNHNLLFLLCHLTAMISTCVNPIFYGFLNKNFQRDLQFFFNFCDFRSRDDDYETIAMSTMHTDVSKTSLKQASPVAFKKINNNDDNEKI
Outline: as §1

[3] = [125I]-Urotensin II, FlashPlate

T9 sequence (P41143 whole entry): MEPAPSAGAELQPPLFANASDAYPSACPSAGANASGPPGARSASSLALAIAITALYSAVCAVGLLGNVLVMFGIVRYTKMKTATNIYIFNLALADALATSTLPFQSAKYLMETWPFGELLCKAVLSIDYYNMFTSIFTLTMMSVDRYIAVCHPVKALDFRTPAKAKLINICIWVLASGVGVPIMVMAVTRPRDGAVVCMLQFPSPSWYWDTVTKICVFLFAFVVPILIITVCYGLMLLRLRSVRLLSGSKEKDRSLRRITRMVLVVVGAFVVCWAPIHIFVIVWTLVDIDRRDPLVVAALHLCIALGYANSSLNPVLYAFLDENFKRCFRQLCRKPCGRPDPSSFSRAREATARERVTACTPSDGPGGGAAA
T1 sequence (P41968 whole entry): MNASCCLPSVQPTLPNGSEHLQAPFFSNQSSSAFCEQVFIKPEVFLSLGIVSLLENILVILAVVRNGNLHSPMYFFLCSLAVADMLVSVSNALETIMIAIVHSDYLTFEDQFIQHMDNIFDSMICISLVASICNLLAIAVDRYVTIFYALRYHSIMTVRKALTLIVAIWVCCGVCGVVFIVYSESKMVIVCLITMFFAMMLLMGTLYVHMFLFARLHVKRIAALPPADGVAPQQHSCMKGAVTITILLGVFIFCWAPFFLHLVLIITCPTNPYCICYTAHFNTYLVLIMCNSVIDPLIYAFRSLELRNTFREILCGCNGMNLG
T5 sequence (P35372 whole entry): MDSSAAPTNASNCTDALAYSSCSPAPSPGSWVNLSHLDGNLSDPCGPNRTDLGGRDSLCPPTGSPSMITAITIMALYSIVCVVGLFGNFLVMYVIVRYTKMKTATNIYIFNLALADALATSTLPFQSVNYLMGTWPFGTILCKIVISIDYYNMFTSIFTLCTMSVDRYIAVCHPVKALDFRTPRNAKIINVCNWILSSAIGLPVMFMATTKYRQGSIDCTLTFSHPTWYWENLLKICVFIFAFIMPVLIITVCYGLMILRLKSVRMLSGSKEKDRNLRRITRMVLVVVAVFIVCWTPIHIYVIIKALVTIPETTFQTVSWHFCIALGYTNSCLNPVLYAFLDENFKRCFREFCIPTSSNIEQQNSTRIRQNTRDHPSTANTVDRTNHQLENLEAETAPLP
T7 sequence (P33032 whole entry): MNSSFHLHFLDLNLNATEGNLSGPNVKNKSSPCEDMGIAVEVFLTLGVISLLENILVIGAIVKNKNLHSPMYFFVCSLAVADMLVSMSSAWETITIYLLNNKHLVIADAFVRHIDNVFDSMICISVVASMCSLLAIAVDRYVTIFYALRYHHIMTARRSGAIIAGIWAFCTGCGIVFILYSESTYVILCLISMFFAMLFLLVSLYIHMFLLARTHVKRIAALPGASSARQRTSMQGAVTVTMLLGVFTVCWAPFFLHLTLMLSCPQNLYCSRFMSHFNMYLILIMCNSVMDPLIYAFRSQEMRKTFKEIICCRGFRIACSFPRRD
T10 sequence (P25103 whole entry): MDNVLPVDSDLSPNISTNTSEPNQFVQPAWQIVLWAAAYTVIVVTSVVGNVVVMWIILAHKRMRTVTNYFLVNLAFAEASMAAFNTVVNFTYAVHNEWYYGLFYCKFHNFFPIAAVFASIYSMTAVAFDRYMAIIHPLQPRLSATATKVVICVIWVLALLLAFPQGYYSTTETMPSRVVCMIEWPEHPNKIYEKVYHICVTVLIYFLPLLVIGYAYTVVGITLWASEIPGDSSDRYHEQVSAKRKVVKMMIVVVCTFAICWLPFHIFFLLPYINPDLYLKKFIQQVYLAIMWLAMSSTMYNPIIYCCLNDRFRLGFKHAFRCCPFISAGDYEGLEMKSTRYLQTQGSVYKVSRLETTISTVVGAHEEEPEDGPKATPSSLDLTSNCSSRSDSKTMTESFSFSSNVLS
T2 sequence (P41145 whole entry): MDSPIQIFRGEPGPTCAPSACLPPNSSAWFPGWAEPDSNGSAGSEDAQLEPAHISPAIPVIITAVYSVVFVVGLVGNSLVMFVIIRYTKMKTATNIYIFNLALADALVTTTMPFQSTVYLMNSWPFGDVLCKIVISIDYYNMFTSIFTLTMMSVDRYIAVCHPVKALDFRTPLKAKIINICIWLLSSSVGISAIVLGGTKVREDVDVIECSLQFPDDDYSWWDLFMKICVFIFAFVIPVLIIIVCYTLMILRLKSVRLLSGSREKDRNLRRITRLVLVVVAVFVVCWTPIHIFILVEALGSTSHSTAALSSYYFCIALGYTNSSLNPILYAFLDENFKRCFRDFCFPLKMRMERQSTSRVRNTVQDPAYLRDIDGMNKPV
T6 sequence (Q99705 whole entry): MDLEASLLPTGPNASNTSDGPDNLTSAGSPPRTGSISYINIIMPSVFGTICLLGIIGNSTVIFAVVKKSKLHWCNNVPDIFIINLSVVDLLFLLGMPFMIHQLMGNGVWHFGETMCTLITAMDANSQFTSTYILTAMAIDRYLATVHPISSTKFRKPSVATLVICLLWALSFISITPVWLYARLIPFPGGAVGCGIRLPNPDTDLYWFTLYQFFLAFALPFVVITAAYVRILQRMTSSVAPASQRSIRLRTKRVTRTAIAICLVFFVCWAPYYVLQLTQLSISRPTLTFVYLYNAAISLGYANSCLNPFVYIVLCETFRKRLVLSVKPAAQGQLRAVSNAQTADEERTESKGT
T4 sequence (P32245 whole entry): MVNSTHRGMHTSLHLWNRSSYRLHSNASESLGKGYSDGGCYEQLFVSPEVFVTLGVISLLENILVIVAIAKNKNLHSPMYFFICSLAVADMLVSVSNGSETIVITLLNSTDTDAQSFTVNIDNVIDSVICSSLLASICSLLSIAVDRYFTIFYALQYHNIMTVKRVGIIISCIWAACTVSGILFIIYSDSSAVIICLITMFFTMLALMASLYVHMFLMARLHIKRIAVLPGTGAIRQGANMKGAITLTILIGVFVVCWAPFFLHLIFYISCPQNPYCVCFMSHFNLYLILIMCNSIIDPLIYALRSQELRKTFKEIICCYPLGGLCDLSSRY
T3 sequence (P41146 whole entry): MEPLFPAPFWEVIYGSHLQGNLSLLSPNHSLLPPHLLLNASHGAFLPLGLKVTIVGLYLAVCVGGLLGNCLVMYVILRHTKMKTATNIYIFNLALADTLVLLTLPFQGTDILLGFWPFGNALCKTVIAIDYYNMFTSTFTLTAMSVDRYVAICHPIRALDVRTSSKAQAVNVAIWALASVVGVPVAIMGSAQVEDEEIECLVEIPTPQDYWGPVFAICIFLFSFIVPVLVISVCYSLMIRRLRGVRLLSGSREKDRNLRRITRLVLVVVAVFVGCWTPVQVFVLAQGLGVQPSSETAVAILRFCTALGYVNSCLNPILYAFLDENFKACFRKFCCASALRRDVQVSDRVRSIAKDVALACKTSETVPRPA

## CSC1OC(COCc2ccc(-c3ccccc3)cc2)C(O)C(OCc2ccccc2)C1NC(=O)CCCN (stereo not shown) [compound 258]
Human Melanocortin (MC3); [125I]-NDP-αMSH, FlashPlate
  A3: inhibition of radioligand binding: − (“−” indicates less than 50% inhibition at 10 μM)
Human κ-Opioid (KOP); [3H]-Diprenorphine, filtration
  A2: inhibition of radioligand binding: − (“−” indicates less than 50% inhibition at 10 μM)
Human opioid (ORL1); [125I]-Nociceptin, FlashPlate
  A10: inhibition of radioligand binding: − (“−” indicates less than 50% inhibition at 10 μM)
Human Melanocortin (MC4); [125I]-NDP-αMSH, FlashPlate
  A4: inhibition of radioligand binding: − (“−” indicates less than 50% inhibition at 10 μM)
Human μ-opioid (MOP); [3H]-Naloxone, FlashPlate
  A7: inhibition of radioligand binding: − (“−” indicates less than 50% inhibition at 10 μM)
[1]; [125I]-S36057, FlashPlate
  A6: inhibition of radioligand binding: − (“−” indicates less than 50% inhibition at 10 μM)
Human melanocortin (MC5); [125I]-NDP-αMSH, FlashPlate
  A5: inhibition of radioligand binding: − (“−” indicates less than 50% inhibition at 10 μM)
Mouse urotensin (mUR2); [3]
  A11: inhibition of radioligand binding: − (“−” indicates less than 50% inhibition at 10 μM)
Human δ-opioid (DOP); [3H]-Bremazocine, FlashPlate
  A1: inhibition of radioligand binding: − (“−” indicates less than 50% inhibition at 10 μM)
Human neurokinin (NK1); [125I]-Substance P, filtration
  A8: inhibition of radioligand binding: + (“+” indicates greater than 50% inhibition at 10 μM)
[2]; [125I]-PYY, FlashPlate
  A9: inhibition of radioligand binding: − (“−” indicates less than 50% inhibition at 10 μM)

## N=C(N)NCC(=O)NC1C(OCc2ccc(Cl)cc2)OC(COCc2ccccc2)C(O)C1OCc1ccc(Cl)cc1 (single isomer, unassigned) [compound 510]
Human Melanocortin (MC3); [125I]-NDP-αMSH, 10 µM
  A3: inhibition of radioligand binding, human melanocortin (MC3): + (“+” indicates greater than 50% inhibition at 10 μM)
Human κ-Opioid (KOP); [3H]-Diprenorphine
  A2: inhibition of radioligand binding, human κ-opioid (KOP): − (“−” indicates less than 50% inhibition at 10 μM)
Human opioid (ORL1); [125I]-Nociceptin, 10 µM
  A10: inhibition of radioligand binding, human opioid (ORL1): + (“+” indicates greater than 50% inhibition at 10 μM)
Human Melanocortin (MC4); [125I]-NDP-αMSH
  A4: inhibition of radioligand binding, human melanocortin (MC4): + (“+” indicates greater than 50% inhibition at 10 μM)
Human μ-opioid (MOP); [3H]-Naloxone, 10 µM
  A7: inhibition of radioligand binding, human μ-opioid (MOP): − (“−” indicates less than 50% inhibition at 10 μM)
[1]; [125I]-S36057
  A6: inhibition of radioligand binding, human melanin-concentrating hormone (MCH1): + (“+” indicates greater than 50% inhibition at 10 μM)
Human melanocortin (MC5); [125I]-NDP-αMSH
  A5: inhibition of radioligand binding, human melanocortin (MC5): + (“+” indicates greater than 50% inhibition at 10 μM)
Mouse urotensin (mUR2); [125I]-Urotensin II
  A11: inhibition of radioligand binding, mouse urotensin (mUR2): − (“−” indicates less than 50% inhibition at 10 μM)
Human δ-opioid (DOP); [3H]-Bremazocine
  A1: inhibition of radioligand binding, human δ-opioid (DOP): − (“−” indicates less than 50% inhibition at 10 μM)
Human neurokinin (NK1); [125I]-Substance P
  A8: inhibition of radioligand binding, human neurokinin (NK1): + (“+” indicates greater than 50% inhibition at 10 μM)
[2]; [125I]-PYY
  A9: inhibition of radioligand binding, human neuropeptide Y (NPY-Y1): − (“−” indicates less than 50% inhibition at 10 μM)

## COC[C@H]1OC(OCc2ccc(-c3ccccc3)cc2)[C@H](NC(=O)CCNC(=N)N)[C@@H](OCc2ccc3ccccc3c2)[C@@H]1O (stereo partly shown) [compound 4]
Human Melanocortin (MC3); human melanocortin MC3 membranes
  A3 radioligand binding inhibition: − (“−” indicates less than 50% inhibition at 10 μM)
Human κ-Opioid (KOP); human κ-opioid (KOP) membranes
  A2 radioligand binding inhibition: − (“−” indicates less than 50% inhibition at 10 μM)
Human opioid (ORL1); human ORL1 membranes
  A10 radioligand binding inhibition: − (“−” indicates less than 50% inhibition at 10 μM)
Human Melanocortin (MC4); human melanocortin MC4 membranes
  A4 radioligand binding inhibition: − (“−” indicates less than 50% inhibition at 10 μM)
Human μ-opioid (MOP); human μ-opioid (MOP) membranes
  A7 radioligand binding inhibition: − (“−” indicates less than 50% inhibition at 10 μM)
[1]; human MCH1 membranes
  A6 radioligand binding inhibition: + (“+” indicates greater than 50% inhibition at 10 μM)
Human melanocortin (MC5); human melanocortin MC5 membranes
  A5 radioligand binding inhibition: + (“+” indicates greater than 50% inhibition at 10 μM)
Mouse urotensin (mUR2); mouse urotensin mUR2 membranes
  A11 radioligand binding inhibition: − (“−” indicates less than 50% inhibition at 10 μM)
Human δ-opioid (DOP); human δ-opioid (DOP) membranes
  A1 radioligand binding inhibition: − (“−” indicates less than 50% inhibition at 10 μM)
Human neurokinin (NK1); human neurokinin NK1 membranes
  A8 radioligand binding inhibition: + (“+” indicates greater than 50% inhibition at 10 μM)
[2]; human NPY-Y1 membranes
  A9 radioligand binding inhibition: − (“−” indicates less than 50% inhibition at 10 μM)

## NCCCC(=O)NC1C(OCc2ccc3ccccc3c2)OC(COCc2ccc3ccccc3c2)C(O)C1OCc1ccc2ccccc2c1 (single isomer, unassigned) [compound 460]
Human Melanocortin (MC3); [125I]-NDP-αMSH, human MC3 membranes, 10 µM
  A3: inhibition of radioligand binding: − (“−” indicates less than 50% inhibition at 10 μM)
Human κ-Opioid (KOP); [3H]-Diprenorphine, human KOP membranes
  A2: inhibition of radioligand binding: − (“−” indicates less than 50% inhibition at 10 μM)
Human opioid (ORL1); [125I]-Nociceptin, human ORL1 membranes, 10 µM
  A10: inhibition of radioligand binding: − (“−” indicates less than 50% inhibition at 10 μM)
Human Melanocortin (MC4); [125I]-NDP-αMSH, human MC4 membranes, 10 µM
  A4: inhibition of radioligand binding: − (“−” indicates less than 50% inhibition at 10 μM)
Human μ-opioid (MOP); [3H]-Naloxone, human MOP membranes, 10 µM
  A7: inhibition of radioligand binding: − (“−” indicates less than 50% inhibition at 10 μM)
[1]; [125I]-S36057, human MCH1 membranes, 10 µM
  A6: inhibition of radioligand binding: − (“−” indicates less than 50% inhibition at 10 μM)
Human melanocortin (MC5); [125I]-NDP-αMSH, human MC5 membranes
  A5: inhibition of radioligand binding: + (“+” indicates greater than 50% inhibition at 10 μM)
Mouse urotensin (mUR2); [125I]-Urotensin II, mouse mUR2 membranes
  A11: inhibition of radioligand binding: − (“−” indicates less than 50% inhibition at 10 μM)
Human δ-opioid (DOP); [3H]-Bremazocine, human DOP membranes
  A1: inhibition of radioligand binding: − (“−” indicates less than 50% inhibition at 10 μM)
Human neurokinin (NK1); [125I]-Substance P, human NK1 membranes
  A8: inhibition of radioligand binding: + (“+” indicates greater than 50% inhibition at 10 μM)
[2]; [125I]-PYY, human NPY-Y1 membranes
  A9: inhibition of radioligand binding: − (“−” indicates less than 50% inhibition at 10 μM)

## CSC1O[C@H](COCc2ccc(Cl)cc2)[C@@H](O)[C@@H](OCc2ccc(Cl)cc2)[C@H]1NC(=O)CCCN (stereo partly shown) [compound 273]
Human Melanocortin (MC3); [125I]-NDP-αMSH, FlashPlate
  A3: inhibition of radioligand binding: − (“−” indicates less than 50% inhibition at 10 μM)
Human κ-Opioid (KOP); [3H]-Diprenorphine, filtration
  A2: inhibition of radioligand binding: − (“−” indicates less than 50% inhibition at 10 μM)
Human opioid (ORL1); [125I]-Nociceptin, FlashPlate
  A10: inhibition of radioligand binding: − (“−” indicates less than 50% inhibition at 10 μM)
Human Melanocortin (MC4); [125I]-NDP-αMSH, FlashPlate
  A4: inhibition of radioligand binding: − (“−” indicates less than 50% inhibition at 10 μM)
Human μ-opioid (MOP); [3H]-Naloxone, FlashPlate
  A7: inhibition of radioligand binding: − (“−” indicates less than 50% inhibition at 10 μM)
[1]; [125I]-S36057, FlashPlate
  A6: inhibition of radioligand binding: − (“−” indicates less than 50% inhibition at 10 μM)
Human melanocortin (MC5); [125I]-NDP-αMSH, FlashPlate
  A5: inhibition of radioligand binding: − (“−” indicates less than 50% inhibition at 10 μM)
Mouse urotensin (mUR2); [3]
  A11: inhibition of radioligand binding: − (“−” indicates less than 50% inhibition at 10 μM)
Human δ-opioid (DOP); [3H]-Bremazocine, FlashPlate
  A1: inhibition of radioligand binding: − (“−” indicates less than 50% inhibition at 10 μM)
Human neurokinin (NK1); [125I]-Substance P, filtration
  A8: inhibition of radioligand binding: + (“+” indicates greater than 50% inhibition at 10 μM)
[2]; [125I]-PYY, FlashPlate
  A9: inhibition of radioligand binding: − (“−” indicates less than 50% inhibition at 10 μM)
